One experiment deals with Tel-FGFR4 (Homo sapiens (Human), UniProt P22455). The experiment in a line: In vitro cellular kinase assay for FGFR4 (BaF3-Tel-FGFR4 cells, MSD capture ELISA of tyrosine phosphorylation). The class given is cell-based. Particulars: BaF3-Tel-FGFR4 cells, 1 hour incubation; read-out: Cellular BaF3 FGFR4 IC50.
Experiment [1] deals with FGFR4 (GST-FGFR4(388-802)) (Homo sapiens (Human), UniProt P22455). The experiment in a line: In-vitro biochemical kinase assay for FGFR4 (Caliper microfluidic mobility shift). Particulars: read-out: Biochemical FGFR4 IC50.
The next experiment deals with FGFR2 (406-821) (Homo sapiens (Human), UniProt P21802). As to the kind of experiment: In vitro biochemical assay for FGFR2.
For a further experiment, the target named is FGFR1 (407-822) (Homo sapiens (Human), UniProt P11362). The experiment in a line: In vitro biochemical assay for FGFR1.
In the next experiment the target is FGFR3 (411-806) (Homo sapiens (Human), UniProt P22607). As to the kind of experiment: In vitro biochemical assay for FGFR3.
For experiment [2], the system named is HuH-7 hepatocellular carcinoma cells. The experiment in a line: CellTiter Glo (CTG) Assay. Particulars: Homo sapiens, Huh-7, 72 h, read-out: HUH7 proliferation (nM) CTG.

Tel-FGFR4, sequence (P22455 other isoform, or with tags, fused parts or gaps): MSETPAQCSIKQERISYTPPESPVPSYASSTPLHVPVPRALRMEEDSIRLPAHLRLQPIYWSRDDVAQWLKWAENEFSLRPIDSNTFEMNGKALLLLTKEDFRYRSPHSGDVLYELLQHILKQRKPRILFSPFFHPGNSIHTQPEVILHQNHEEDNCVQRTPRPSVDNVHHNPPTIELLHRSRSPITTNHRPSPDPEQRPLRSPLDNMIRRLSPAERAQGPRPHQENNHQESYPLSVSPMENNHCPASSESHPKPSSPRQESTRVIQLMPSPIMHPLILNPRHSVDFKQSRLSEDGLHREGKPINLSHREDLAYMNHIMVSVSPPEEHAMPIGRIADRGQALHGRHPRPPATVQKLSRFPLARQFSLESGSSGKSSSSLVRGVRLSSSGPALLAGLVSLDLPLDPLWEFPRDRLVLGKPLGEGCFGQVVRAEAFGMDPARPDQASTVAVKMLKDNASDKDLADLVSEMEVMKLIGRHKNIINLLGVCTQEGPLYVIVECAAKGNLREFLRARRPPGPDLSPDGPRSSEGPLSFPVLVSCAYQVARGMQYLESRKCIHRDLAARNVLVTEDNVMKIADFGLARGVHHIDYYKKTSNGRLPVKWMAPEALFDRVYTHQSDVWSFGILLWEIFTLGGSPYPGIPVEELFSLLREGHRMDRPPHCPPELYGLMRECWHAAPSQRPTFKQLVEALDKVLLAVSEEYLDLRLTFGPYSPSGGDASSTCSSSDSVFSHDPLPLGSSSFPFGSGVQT
FGFR1 (407-822), sequence (P11362 407-822): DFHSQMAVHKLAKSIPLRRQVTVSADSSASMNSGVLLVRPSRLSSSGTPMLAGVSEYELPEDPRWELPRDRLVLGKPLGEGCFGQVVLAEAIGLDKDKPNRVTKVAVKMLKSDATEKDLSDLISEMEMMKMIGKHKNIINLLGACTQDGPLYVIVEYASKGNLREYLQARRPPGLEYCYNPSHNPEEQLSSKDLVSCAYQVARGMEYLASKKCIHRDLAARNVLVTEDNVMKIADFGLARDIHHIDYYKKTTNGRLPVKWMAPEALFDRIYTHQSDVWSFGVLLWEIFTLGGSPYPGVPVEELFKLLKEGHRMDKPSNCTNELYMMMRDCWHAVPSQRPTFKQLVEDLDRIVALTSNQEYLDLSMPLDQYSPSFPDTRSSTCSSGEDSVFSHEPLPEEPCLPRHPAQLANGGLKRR
FGFR2 (406-821), sequence (P21802 406-821): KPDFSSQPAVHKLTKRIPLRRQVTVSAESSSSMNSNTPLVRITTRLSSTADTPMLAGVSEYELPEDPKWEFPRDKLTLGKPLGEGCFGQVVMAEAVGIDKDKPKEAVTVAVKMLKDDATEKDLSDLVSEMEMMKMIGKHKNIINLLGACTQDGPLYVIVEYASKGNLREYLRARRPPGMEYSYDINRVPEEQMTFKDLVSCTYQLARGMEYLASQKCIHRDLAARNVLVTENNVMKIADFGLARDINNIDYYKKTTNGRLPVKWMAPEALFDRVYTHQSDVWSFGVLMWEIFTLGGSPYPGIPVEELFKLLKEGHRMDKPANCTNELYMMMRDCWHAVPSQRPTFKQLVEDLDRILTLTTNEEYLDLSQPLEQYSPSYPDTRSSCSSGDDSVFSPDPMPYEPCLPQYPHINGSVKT
FGFR3 (411-806), sequence (P22607 411-806): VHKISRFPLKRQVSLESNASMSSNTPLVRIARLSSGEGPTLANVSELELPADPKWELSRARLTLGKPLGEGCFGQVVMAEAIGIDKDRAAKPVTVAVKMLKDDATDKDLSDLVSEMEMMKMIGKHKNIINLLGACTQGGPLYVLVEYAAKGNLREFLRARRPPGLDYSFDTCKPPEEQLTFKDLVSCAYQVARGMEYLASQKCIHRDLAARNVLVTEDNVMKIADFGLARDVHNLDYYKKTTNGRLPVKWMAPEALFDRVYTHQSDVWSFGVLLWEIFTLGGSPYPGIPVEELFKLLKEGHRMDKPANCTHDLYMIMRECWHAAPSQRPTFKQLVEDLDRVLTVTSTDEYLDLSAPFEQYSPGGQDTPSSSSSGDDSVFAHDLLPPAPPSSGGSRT
FGFR4 (GST-FGFR4(388-802)), sequence (P22455 388-802): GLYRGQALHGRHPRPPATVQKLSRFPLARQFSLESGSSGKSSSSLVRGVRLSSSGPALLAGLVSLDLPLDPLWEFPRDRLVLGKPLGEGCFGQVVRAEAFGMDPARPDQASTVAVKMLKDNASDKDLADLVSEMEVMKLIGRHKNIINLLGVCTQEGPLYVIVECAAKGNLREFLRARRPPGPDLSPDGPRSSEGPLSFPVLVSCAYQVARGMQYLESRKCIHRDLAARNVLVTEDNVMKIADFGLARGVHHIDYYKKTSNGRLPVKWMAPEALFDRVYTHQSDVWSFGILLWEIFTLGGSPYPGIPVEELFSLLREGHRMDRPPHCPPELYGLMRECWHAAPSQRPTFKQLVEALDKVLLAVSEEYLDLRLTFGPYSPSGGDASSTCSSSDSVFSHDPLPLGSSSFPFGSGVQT

`COCCNc1cc(NC(=O)N2CCCc3cc(CN4CCS(=O)(=O)CC4=O)c(C=O)nc32)ncc1C#N` [Example 150, N-(5-cyano-4-((2-methoxyethyl)amino)pyridin-2-yl)-6-((1,1-dioxido-3-oxothiomorpholino)methyl)-7-formyl-3,4-dihydro-1,8-naphthyridine-1(2H)-carboxamide]: the IC50 on Tel-FGFR4 is 5.8 nM; in experiment [1], 1.2 nM; at FGFR2 (406-821), over 10000 nM; against FGFR1 (407-822) it was over 10000 nM; against FGFR3 (411-806), over 10000 nM; in experiment [2], 45.5 nM.
Regarding `COCCNc1cc(NC(=O)N2CCCc3cc(N4CCC(C)C4=O)c(C=O)nc32)ncc1C#N` (racemic) [Example 261, N-(5-cyano-4-((2-methoxyethyl)amino)pyridin-2-yl)-7-formyl-6-(3-methyl-2-oxopyrrolidin-1-yl)-3,4-dihydro-1,8-naphthyridine-1(2H)-carboxamide], the IC50 on FGFR2 (406-821) is over 10000 nM; at FGFR1 (407-822) it was over 10000 nM; against FGFR3 (411-806) it was over 10000 nM; in experiment [2] it was 2540 nM.
`CC(=O)N1CCN(Cc2cc3c(nc2C=O)N(C(=O)Nc2cc(OC(C)C)c(C#N)cn2)CCC3)CC1` [Example 134, 6-((4-acetylpiperazin-1-yl)methyl)-N-(5-cyano-4-isopropoxypyridin-2-yl)-7-formyl-3,4-dihydro-1,8-naphthyridine-1(2H)-carboxamide]: the IC50 on Tel-FGFR4 is 20.5 nM; in experiment [1], 1.9 nM; against FGFR2 (406-821) it was over 10000 nM; on FGFR1 (407-822), over 10000 nM; against FGFR3 (411-806) it was over 10000 nM; in experiment [2] it was 450 nM.
Turning to `COCCNc1cc(NC(=O)N2CCCc3cc(CN4CCSCC4=O)c(C=O)nc32)ncc1C#N` [Example 149, N-(5-cyano-4-((2-methoxyethyl)amino)pyridin-2-yl)-7-formyl-6-((3-oxothiomorpholino)methyl)-3,4-dihydro-1,8-naphthyridine-1(2H)-carboxamide], the IC50 at Tel-FGFR4 is 5.3 nM; in experiment [1], 0.1 nM; against FGFR2 (406-821) it was over 10000 nM; against FGFR1 (407-822), over 10000 nM; against FGFR3 (411-806) it was over 10000 nM; in experiment [2], 77.5 nM.
With `COCCOc1cc(NC(=O)N2CCCc3cc(C4CC4)c(C=O)nc32)ncc1C#N` [Example 62, N-(5-cyano-4-(2-methoxyethoxyl)pyridin-2-yl)-6-cyclopropyl-7-formyl-3,4-dihydro-1,8-naphthyridine-1(2H)-carboxamide], the IC50 is over 10000 nM against FGFR2 (406-821), over 10000 nM at FGFR1 (407-822), over 10000 nM at FGFR3 (411-806) and 599 nM in experiment [2].
`N#Cc1cnc(NC(=O)N2CCCc3cc(CO)c(C=O)nc32)cc1NCC1CCCOC1` (racemic) [Example 55, N-(5-cyano-4-(((tetrahydro-2H-pyran-3-yl)methyl)amino)pyridin-2-yl)-7-formyl-6-(hydroxymethyl)-3,4-dihydro-1,8-naphthyridine-1(2H)-carboxamide]: the IC50 was over 10000 nM against FGFR2 (406-821), over 10000 nM against FGFR1 (407-822), over 10000 nM against FGFR3 (411-806) and 202 nM in experiment [2].
As to `CC(C)Oc1cc(NC(=O)N2CCCc3cc(C4CCNCC4)c(C=O)nc32)ncc1C#N` [Example 265, N-(5-cyano-4-isopropoxypyridin-2-yl)-7-formyl-6-(piperidin-4-yl)-3,4-dihydro-1,8-naphthyridine-1(2H)-carboxamide], the IC50 at Tel-FGFR4 is 87 nM; in experiment [1], 3.5 nM; against FGFR2 (406-821), over 10000 nM; against FGFR1 (407-822), over 10000 nM; at FGFR3 (411-806) it was over 10000 nM; in experiment [2], 404 nM.
On to `COCCOc1cc(NC(=O)N2CCCc3cc(CN(C)C)c(C=O)nc32)ncc1C#N` [Example 64, N-(5-cyano-4-(2-methoxyethoxyl)pyridin-2-yl)-6-((dimethylamino)methyl)-7-formyl-3,4-dihydro-1,8-naphthyridine-1(2H)-carboxamide], for which the IC50 on Tel-FGFR4 was 713 nM; in experiment [1] it was 160 nM; against FGFR2 (406-821), over 10000 nM; against FGFR1 (407-822) it was over 10000 nM; against FGFR3 (411-806) it was over 10000 nM.
On to `CC(C)Nc1cc(NC(=O)N2CCCc3cc(CN4CCN(C)CC4=O)c(C=O)nc32)ncc1C#N` [Example 95, N-(5-cyano-4-(isopropylamino)pyridin-2-yl)-7-formyl-6-((4-methyl-2-oxopiperazin-1-yl)methyl)-3,4-dihydro-1,8-naphthyridine-1(2H)-carboxamide], for which the IC50 against FGFR2 (406-821) was over 10000 nM; on FGFR1 (407-822), over 10000 nM; against FGFR3 (411-806) it was over 10000 nM; in experiment [2], 45 nM.
Consider `COCCNc1cc(NC(=O)N2CCCc3cc(-c4cnc(C)s4)c(C=O)nc32)ncc1C#N` [Example 252, N-(5-cyano-4-((2-methoxyethyl)amino)pyridin-2-yl)-7-formyl-6-(2-methylthiazol-5-yl)-3,4-dihydro-1,8-naphthyridine-1(2H)-carboxamide], for which the IC50 is over 10000 nM against FGFR2 (406-821), over 10000 nM against FGFR1 (407-822), over 10000 nM on FGFR3 (411-806) and 395 nM in experiment [2].
Consider `N#Cc1ccc(NC(=O)N2CCC(O)c3ccc(C=O)nc32)nc1` (racemic) [Example 79, N-(5-cyanopyridin-2-yl)-7-formyl-4-hydroxy-3,4-dihydro-1,8-naphthyridine-1(2H)-carboxamide], for which the IC50 at Tel-FGFR4 was 194 nM; in experiment [1], 32.5 nM; at FGFR2 (406-821), over 10000 nM; against FGFR1 (407-822), over 10000 nM; against FGFR3 (411-806), over 10000 nM.
Regarding `CN1CCN(Cc2cc3c(nc2C=O)N(C(=O)Nc2cc(NC45CC(C4)C5)c(C#N)cn2)CCC3)C(=O)C1` [Example 237, N-(4-(bicyclo[1.1.1]pentan-1-ylamino)-5-cyanopyridin-2-yl)-7-formyl-6-((4-methyl-2-oxopiperazin-1-yl)methyl)-3,4-dihydro-1,8-naphthyridine-1(2H)-carboxamide], the IC50 on Tel-FGFR4 was 19 nM; in experiment [1], 1.9 nM; on FGFR2 (406-821) it was over 10000 nM; on FGFR1 (407-822), over 10000 nM; at FGFR3 (411-806) it was over 10000 nM; in experiment [2], 18 nM.
Take `COCC(C)Oc1cc(NC(=O)N2CCCc3cc(CO)c(C=O)nc32)ncc1C#N` (racemic) [Example 48, N-(5-cyano-4-((1-methoxypropan-2-yl)oxy)pyridin-2-yl)-7-formyl-6-(hydroxymethyl)-3,4-dihydro-1,8-naphthyridine-1(2H)-carboxamide]: the IC50 was 8.8 nM at Tel-FGFR4; 3.2 nM in experiment [1]; over 10000 nM at FGFR2 (406-821); over 10000 nM at FGFR1 (407-822); over 10000 nM on FGFR3 (411-806).
For the molecule `CN1CCN(Cc2cc3c(nc2C=O)N(C(=O)Nc2cc(NCCO)c(C#N)cn2)CCC3)C(=O)C1` [Example 197, N-(5-cyano-4-((2-hydroxyethyl)amino)pyridin-2-yl)-7-formyl-6-((4-methyl-2-oxopiperazin-1-yl)methyl)-3,4-dihydro-1,8-naphthyridine-1(2H)-carboxamide], the IC50 was 19.1 nM at Tel-FGFR4; 1.2 nM in experiment [1]; over 10000 nM on FGFR2 (406-821); over 10000 nM on FGFR1 (407-822); over 10000 nM on FGFR3 (411-806); 146 nM in experiment [2].
With `COCCNc1cc(NC(=O)N2CCCc3cc(CN(C)C(=O)COC)c(C=O)nc32)ncc1C#N` [Example 148, N-(5-cyano-4-((2-methoxyethyl)amino)pyridin-2-yl)-7-formyl-6-((2-methoxy-N-methylacetamido)methyl)-3,4-dihydro-1,8-naphthyridine-1(2H)-carboxamide], the IC50 was over 10000 nM against FGFR2 (406-821), over 10000 nM against FGFR1 (407-822), over 10000 nM at FGFR3 (411-806) and 45.5 nM in experiment [2].
As for `COCCOc1cc(NC(=O)N2CCCc3cc(C(F)F)c(C=O)nc32)ncc1C#N` [Example 63, N-(5-cyano-4-(2-methoxyethoxyl)pyridin-2-yl)-6-(difluoromethyl)-7-formyl-3,4-dihydro-1,8-naphthyridine-1(2H)-carboxamide], the IC50 against FGFR2 (406-821), on FGFR1 (407-822) and at FGFR3 (411-806) was over 10000 nM each time.
As to `COCCOc1cc(NC(=O)N2CCCCc3ccc(C=O)nc32)ncc1C#N` [Example 202, N-(5-cyano-4-(2-methoxyethoxyl)pyridin-2-yl)-2-formyl-7,8-dihydro-5H-pyrido[2,3-b]azepine-9(6H)-carboxamide], the IC50 was over 10000 nM at FGFR2 (406-821), over 10000 nM against FGFR1 (407-822), over 10000 nM at FGFR3 (411-806) and over 3000 nM in experiment [2].
For the molecule `COCCNc1cc(NC(=O)N2c3nc(C=O)c(CN4CCN(C)CC4=O)cc3CC[C@@H]2C)ncc1C#N` [Example 228, (S)-N-(5-cyano-4-((2-methoxyethyl)amino)pyridin-2-yl)-7-formyl-2-methyl-6-((4-methyl-2-oxopiperazin-1-yl)methyl)-3,4-dihydro-1,8-naphthyridine-1(2H)-carboxamide], the IC50 at Tel-FGFR4 was 6.2 nM; in experiment [1] it was 0.6 nM; against FGFR2 (406-821), over 10000 nM; at FGFR1 (407-822), over 10000 nM; at FGFR3 (411-806) it was over 10000 nM; in experiment [2] it was 62 nM.
With `O=Cc1ccc2c(n1)N(C(=O)Nc1ccc(C(F)(F)F)cn1)CCO2` [Example 14, 6-formyl-N-(5-(trifluoromethyl)pyridin-2-yl)-2H-pyrido[3,2-b][1,4]oxazine-4(3H)-carboxamide], the IC50 on FGFR2 (406-821), at FGFR1 (407-822) and at FGFR3 (411-806) was over 10000 nM throughout.

The values above are taken from US9266883B2, “Ring-fused bicyclic pyridyl derivatives as FGFR4 inhibitors” (Novartis AG, priority 2013, dated 2016).
